Structures can show the parent of a compound that is named as a salt.
SMILES | melting point
COc1ccc(Nc2nc(-c3cccc(C(=O)Nc4ccc(C(=O)O)cc4C)c3)cn3ccnc23)cc1OC (as salt: hydrochloride) [Example 2, 4-(3-(8-(3,4-dimethoxyphenylamino)imidazo[1,2-a]pyrazin-6-yl)benzamido)-3-methylbenzoic acid hydrochloride salt] | 188 to 215 °C
COc1ccc(Nc2nc(-c3cccc(C(=O)Nc4ccc(C(=O)OCc5ccccc5)cc4)c3)cn3ccnc23)cc1OC [Example 3, benzyl 4-(3-(8-(3,4-dimethoxyphenylamino)imidazo[1,2-a]pyrazin-6-yl)benzamido)benzoate] | 154 to 160 °C
